Data published in US11925643B2, “Toll-like receptor 4 (TLR4) inhibitors and use thereof” (MOR RESEARCH APPLICATIONS LTD., priority 2018, dated 2024).
Entries after “also recorded” stand apart in the source; their conditions may differ. Residues, ends and D or L forms follow the SMILES beside them.

How the values were obtained:
[1] = test system: TLR4 mRNA; experiment: TLR4 mRNA level by RT-qPCR in hypoxic cardiomyocytes; format: cell-based; details: hypoxic conditions
Protocol: (§1) Real-time RT-PCR experiments were performed in duplicates on an ABI 7900 instrument (Applied Biosystems™) using Taqman™ Master Mix (Applied Biosystems™). The average threshold cycles (Ct) of the duplicates were used to calculate the relative expression levels of the following genes: TLR4 (Applied Biosystems™ assay primer ID: Mm00569848_m1 Tlr4), TLR2 (assay primer ID: Mm01769726_m1 Tlr2), TNF-α (assay primer ID: Mm00443260_g1 Tnf) and IL-1β (assay primer ID: Mm00434228_m1 II1b) in vitro and in vivo following hypoxia or ischemia, respectively. The reference gene was TBP and the primer used was derived from mouse TATA-box binding protein (Applied Biosystems™ assay primer ID: Mm00446973_m1 Tbp). Amounts of TLR2, TLR4, TNF-α and IL-1β mRNAs in each sample were calculated relative to TBP mRNA, based on the corresponding Cts, as Relative Quantity (RQ) values, and normalized taking as 1 a randomly selected sample of the control group (TBP mRNA). Calculation were performed using the Applied Biosystems Analysis™ software (StepOnePlus V2.2.2). All mRNA scores are presented in arbitrary units.
Next, peptidomimetics of SEQ ID NOs:1 and 2 were tested for their ability to affect the expression of TLR4. The level of TLR4 mRNA was measured by real-time reverse transcriptase polymerase chain reaction (RT-qPCR) method as described in Materials and Methods. The possible effect of both compounds on expression levels of TLR2 mRNA was used as a negative control.

[2] = test system: C57BL mice; experiment: Heart infarct size after LAD ligation (MI mice model); format: in vivo
Protocol: Male wild type mice (C57BL) were purchased from Harlan™ (Jerusalem, Israel). Mice were grown in a temperature-controlled atmosphere, 12/12 hours light/dark cycle and given standard food and tap water. The experiments were performed on 2-3-month-old male mice. All experiments were carried out in accordance with the guidelines of the Animal Care and Use Committee of Tel Aviv University with the Guide for the Care and Use of Laboratory Animals published by the US National Institutes of Health.
Mice were anesthetized (with a mixture of 100 mg/kg ketamine and 10 mg/kg xylazine), intubated and ventilated with air until spontaneous breathing commenced. The left anterior descending artery (LAD) was ligated with one single stitch, forming an ischemia that can be observed almost immediately. By closing the LAD, no further blood flow is permitted in that area, while the surrounding myocardial tissue is almost not affected. This surgical procedure imitates the pathobiological and pathophysiological aspects occurring in infarction-related myocardial ischemia.
Hearts of mice from tested groups were isolated, and pictures were taken to determine the extent of infarct relative to total area of the left ventricle to thereby determine the extent of cardio-protection by an exemplary decoy peptide. The viable heart sections were put in a 1% solution of 2,3,5-triphenyl tetrazolium chloride (TTC) in phosphate buffer for 10 min at 37° C. TTC stained the viable tissue in red while necrotic tissue remained discolored. Sections were fixed overnight in 4% formaldehyde to enhance the contrast between stained and unstained tissue. The sections were then placed between two cover slips and digitally photographed using a Nikon Coolpix 5000 camera, at a resolution of 1400×960 pixels, and quantified by using ImageJ software. The area of ischemia/infarction (TTC-negative) was presented as a percentage of the entire area of the section.
Myocardial infarction (MI) in animals may be mimicked by a procedure called left anterior descending artery (LAD) ligation, described in Materials and Methods above. A pilot dose response experiment was first conducted. Decoy peptide represented by compound PM6 (0.5, 1.0 and 5.0 mg/kg) or aqueous solution of 40% polyethylene glycol (PEG 600) were administered intravenously (IV) to C57BL mice, 1 hour before LAD ligation. All mice were kept under standard animal facility conditions for 24 hours. The heart infarct size was measured in all three groups.

[3] = test system: TNF-α mRNA; experiment: TNF-α mRNA in mouse myocardium by RT-qPCR after ischemia; format: in vivo, mice; details: 0.3 mg/kg 1 hour after MI induction
Protocol: as §1, with “Calculation were performed using the Applied Biosystems Analysis™ software (StepOnePlus V2.2.2). All mRNA scores are presented in arbitrary units.” left out
Real time reverse transcriptase PCR (RT-qPCR) was conducted to identify the effect of a disclosed decoy peptide on TLR-mediated induction of the inflammatory cytokine TNF-α. The effect of an exemplary decoy peptide PM6 (0.3 mg/kg; administered 1 hour after MI induction) on TNF-α mRNA expression in mice myocardium was assessed 24 h and 7 days after ischemia induction.

[4] = test system: C57BL mice; experiment: Serum markers CK, LDH, troponin and GOT after LAD ligation; format: in vivo; details: 0.3 mg/kg IV one hour after ligation
[5] = test system: TLR2 mRNA; experiment: TLR2 mRNA level by RT-qPCR in hypoxic cardiomyocytes (negative control); format: cell-based; details: hypoxic conditions
Protocol: as §1
Next, peptidomimetics of SEQ ID NOs:1 and 2 were tested for their ability to affect the expression of TLR4. The level of TLR4 mRNA was measured by real-time reverse transcriptase polymerase chain reaction (RT-qPCR) method as described in Materials and Methods. […]

Row | Compound | inhibition of TLR4 mRNA production [1] | heart infarct size ([2]; 0.05 mg/kg IV 1 hour before LAD ligation) | infarct size ([2]; 0.3 mg/kg IV 1 hour after ligation, 7 days) | heart infarct size ([2]; 0.30 mg/kg IV 1 hour before LAD ligation) | heart infarct size ([2]; 1.00 mg/kg IV 1 hour before LAD ligation) | infarct size ([2]; pilot, 0.5 mg/kg IV 1 hour before LAD ligation, 24 hours) | TNF-α mRNA level in myocardium ([3]; 24 h) | TNF-α mRNA level in myocardium ([3]; 7 days) | blood level of CK ([4]; 1 week) | blood level of LDH ([4]; 1 week) | level of GOT ([4]; 24 h and 7 days) | blood level of CK ([4]; 24 hours) | blood level of LDH ([4]; 24 hours) | TLR4 mRNA expression level [1] | TLR2 mRNA expression level [5]
1 | CCCCCCCCNc1nc(=O)n(Cc2ccccc2)cc1C [PM6, 1-benzyl-5-methyl-4-(octylamino)pyrimidin-2(1H)-one] | ~3.3 fold | significantly reduced | significantly reduced | significantly reduced; also recorded: significantly effective | significantly reduced | significant effect | significant reduction | significant reduction | very impressive down regulation | very impressive down regulation | did not changed dramatically | very impressive down regulation | very impressive down regulation |  | 
2 | CC[C@H](C)[C@H](NC(C)=O)C(=O)N[C@H](C(=O)N[C@@H](Cc1ccccc1)C(=O)N[C@@H](C)C(N)=O)C(C)C [SEQ ID NO:1, (2S,3S)-2-acetamido-N-((S)-1-(((S)-1-(((S)-1-amino-1-oxopropan-2-yl)amino)-1-oxo-3-phenylpropan-2-yl)amino)-3-methyl-1-oxobutan-2-yl)-3-methylpentanamide] (Ac-IVFA-NH2) |  |  |  |  |  |  |  |  |  |  |  |  |  | significantly decreased | relatively unaffected
